Results: US20150094474A1, “AGRICULTURAL CHEMICALS” (Redx Pharma Ltd., priority 2012, published 2015)

Columns and labels:
barley = assay: Herbicidal bioassay, barley (% necrosis); assay type: in vivo
Summary of the method: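 Lolium perenne, barley, peas and Chinese cabbage at 2-4 true leaf stage sprayed simultaneously with a Potter tower, compounds in DMSO at six concentrations (0.05% to 0.0001%). Phytotoxicity scored as % necrosis per EPPO PP1/135 at set intervals; five replicates per treatment and species; DMSO and water controls.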

Chinese cabbage = assay: Herbicidal bioassay, Chinese cabbage (% necrosis); assay type: in vivo
Description: A laboratory bioassay was conducted to screen ten compounds (Fluazifop (25); Ethyl fluazifop (62); five fluazifop analogues: 27, 28, 63, 64 and 65; mesofulfuron (6); and two mesosulfuron analogues: 8 and 61. for activity against Lolium perenne, barley, peas and Chinese cabbage. Compounds were diluted in DMSO. Controls were performed using both DMSO and water.
Plants were obtained as seeds and were grown to the 2-4 true leaf stage. Plants were grown individually in seed trays. Each plant (in an approximately 3 cm diameter plug) was then detached from the tray for spraying. Environmental conditions were closely monitored and recorded and were within the optimal range of the target species.
The compounds were screened at a range of six concentrations, eg. 0.05%, 0.01%, 0.005%, 0.001%, 0.0005% and 0.0001%. Treatments will be applied directly onto the plants, using a potter tower.
One plant of each type will be sprayed using a potter tower. The 4 different types of weeds will be placed in a 10 cm diameter area underneath the potter sprayer and sprayed simultaneously. The growth of the plants and any Phytotoxicity effects will then be assessed at specified growth intervals, according to EPPO guideline PP1/135. Five replicates will be performed for each treatment, for each species.

## CCOC(=O)C(C)Oc1ccc(Oc2ccc(C(F)(F)F)cn2)cc1 (stereo not drawn) [Fluazifop Ethyl ester (62)]
barley; Dose 0.000001, Day 0
  Sum of % necrosis in barley: C (less than 50% necrosis)
barley; Dose 0.000001, Day 1
  Sum of % necrosis in barley: C (less than 50% necrosis)
barley; Dose 0.000001, Day 3
  Sum of % necrosis in barley: C (less than 50% necrosis)
barley; Dose 0.000001, Day 7
  Sum of % necrosis in barley: C (less than 50% necrosis)
barley; Dose 0.000001, Day 10
  Sum of % necrosis in barley: C (less than 50% necrosis)
barley; Dose 0.000001, Day 14
  Sum of % necrosis in barley: C (less than 50% necrosis)
barley; Dose 0.000001, Day 21
  Sum of % necrosis in barley: C (less than 50% necrosis)
barley; Dose 0.000005, Day 0
  Sum of % necrosis in barley: C (less than 50% necrosis)
barley; Dose 0.000005, Day 1
  Sum of % necrosis in barley: C (less than 50% necrosis)
barley; Dose 0.000005, Day 3
  Sum of % necrosis in barley: C (less than 50% necrosis)
barley; Dose 0.000005, Day 7
  Sum of % necrosis in barley: C (less than 50% necrosis)
barley; Dose 0.000005, Day 10
  Sum of % necrosis in barley: C (less than 50% necrosis)
barley; Dose 0.000005, Day 14
  Sum of % necrosis in barley: C (less than 50% necrosis)
barley; Dose 0.000005, Day 21
  Sum of % necrosis in barley: C (less than 50% necrosis)
barley; Dose 0.00001, Day 0
  Sum of % necrosis in barley: C (less than 50% necrosis)
barley; Dose 0.00001, Day 1
  Sum of % necrosis in barley: C (less than 50% necrosis)
barley; Dose 0.00001, Day 3
  Sum of % necrosis in barley: C (less than 50% necrosis)
barley; Dose 0.00001, Day 7
  Sum of % necrosis in barley: C (less than 50% necrosis)
barley; Dose 0.00001, Day 10
  Sum of % necrosis in barley: C (less than 50% necrosis)
barley; Dose 0.00001, Day 14
  Sum of % necrosis in barley: C (less than 50% necrosis)
barley; Dose 0.00001, Day 21
  Sum of % necrosis in barley: B (50%-80% necrosis)
barley; Dose 0.00005, Day 0
  Sum of % necrosis in barley: C (less than 50% necrosis)
barley; Dose 0.00005, Day 1
  Sum of % necrosis in barley: C (less than 50% necrosis)
barley; Dose 0.00005, Day 3
  Sum of % necrosis in barley: C (less than 50% necrosis)
barley; Dose 0.00005, Day 7
  Sum of % necrosis in barley: C (less than 50% necrosis)
barley; Dose 0.00005, Day 10
  Sum of % necrosis in barley: C (less than 50% necrosis)
barley; Dose 0.00005, Day 14
  Sum of % necrosis in barley: C (less than 50% necrosis)
barley; Dose 0.00005, Day 21
  Sum of % necrosis in barley: B (50%-80% necrosis)
barley; Dose 0.0001, Day 0
  Sum of % necrosis in barley: C (less than 50% necrosis)
barley; Dose 0.0001, Day 1
  Sum of % necrosis in barley: C (less than 50% necrosis)
barley; Dose 0.0001, Day 3
  Sum of % necrosis in barley: C (less than 50% necrosis)
barley; Dose 0.0001, Day 7
  Sum of % necrosis in barley: C (less than 50% necrosis)
barley; Dose 0.0001, Day 10
  Sum of % necrosis in barley: C (less than 50% necrosis)
barley; Dose 0.0001, Day 14
  Sum of % necrosis in barley: C (less than 50% necrosis)
barley; Dose 0.0001, Day 21
  Sum of % necrosis in barley: A (over 80% necrosis)
barley; Dose 0.0005, Day 0
  Sum of % necrosis in barley: C (less than 50% necrosis)
barley; Dose 0.0005, Day 1
  Sum of % necrosis in barley: C (less than 50% necrosis)
barley; Dose 0.0005, Day 3
  Sum of % necrosis in barley: C (less than 50% necrosis)
barley; Dose 0.0005, Day 7
  Sum of % necrosis in barley: C (less than 50% necrosis)
barley; Dose 0.0005, Day 10
  Sum of % necrosis in barley: C (less than 50% necrosis)
barley; Dose 0.0005, Day 14
  Sum of % necrosis in barley: C (less than 50% necrosis)
barley; Dose 0.0005, Day 21
  Sum of % necrosis in barley: A (over 80% necrosis)
Chinese cabbage; Dose 0.000001, Day 0
  Sum of % necrosis in Chinese cabbage: C (less than 50% necrosis)
Chinese cabbage; Dose 0.000001, Day 1
  Sum of % necrosis in Chinese cabbage: C (less than 50% necrosis)
Chinese cabbage; Dose 0.000001, Day 3
  Sum of % necrosis in Chinese cabbage: C (less than 50% necrosis)
Chinese cabbage; Dose 0.000001, Day 7
  Sum of % necrosis in Chinese cabbage: C (less than 50% necrosis)
Chinese cabbage; Dose 0.000001, Day 10
  Sum of % necrosis in Chinese cabbage: C (less than 50% necrosis)
Chinese cabbage; Dose 0.000001, Day 14
  Sum of % necrosis in Chinese cabbage: C (less than 50% necrosis)
Chinese cabbage; Dose 0.000001, Day 21
  Sum of % necrosis in Chinese cabbage: C (less than 50% necrosis)
Chinese cabbage; Dose 0.000005, Day 0
  Sum of % necrosis in Chinese cabbage: C (less than 50% necrosis)
Chinese cabbage; Dose 0.000005, Day 1
  Sum of % necrosis in Chinese cabbage: C (less than 50% necrosis)
Chinese cabbage; Dose 0.000005, Day 3
  Sum of % necrosis in Chinese cabbage: C (less than 50% necrosis)
Chinese cabbage; Dose 0.000005, Day 7
  Sum of % necrosis in Chinese cabbage: C (less than 50% necrosis)
Chinese cabbage; Dose 0.000005, Day 10
  Sum of % necrosis in Chinese cabbage: A (over 80% necrosis)
Chinese cabbage; Dose 0.000005, Day 14
  Sum of % necrosis in Chinese cabbage: A (over 80% necrosis)
Chinese cabbage; Dose 0.000005, Day 21
  Sum of % necrosis in Chinese cabbage: A (over 80% necrosis)
Chinese cabbage; Dose 0.00001, Day 0
  Sum of % necrosis in Chinese cabbage: C (less than 50% necrosis)
Chinese cabbage; Dose 0.00001, Day 1
  Sum of % necrosis in Chinese cabbage: C (less than 50% necrosis)
Chinese cabbage; Dose 0.00001, Day 3
  Sum of % necrosis in Chinese cabbage: C (less than 50% necrosis)
Chinese cabbage; Dose 0.00001, Day 7
  Sum of % necrosis in Chinese cabbage: C (less than 50% necrosis)
Chinese cabbage; Dose 0.00001, Day 10
  Sum of % necrosis in Chinese cabbage: B (50%-80% necrosis)
Chinese cabbage; Dose 0.00001, Day 14
  Sum of % necrosis in Chinese cabbage: A (over 80% necrosis)
Chinese cabbage; Dose 0.00001, Day 21
  Sum of % necrosis in Chinese cabbage: A (over 80% necrosis)
